{"source": "paper PMC9520775", "about": "“Everolimus pharmacokinetics and exposure-response relationship in Japanese patients with advanced breast cancer” (Frontiers in Pharmacology, 2022)", "origin": "cited, not measured here", "system": "breast cancer patients", "set-up": "method as in Ito et al., 2015", "conditions": "Japanese population in the BOLERO-2 study; ref Ito et al., 2015; cited from earlier work", "data": [{"smiles": "CO[C@H]1C[C@@H]2CC[C@@H](C)[C@@](O)(O2)C(=O)C(=O)N2CCCC[C@H]2C(=O)O[C@H]([C@H](C)C[C@@H]2CC[C@@H](OCCO)[C@H](OC)C2)CC(=O)[C@H](C)/C=C(\\C)[C@@H](O)[C@@H](OC)C(=O)[C@H](C)C[C@H](C)/C=C/C=C/C=C/1C", "note": "[everolimus]", "values": [{"measurement": "median PFS", "result": 8.5, "unit": "months"}]}]}
